Key:
Test in all cases: relative viability (nuclei count vs DMSO), 5 days (fraction); higher = more cells survive
[1] = compound: C1COCCN1C2=NC(=NC3=C2OC4=C3C=CC=N4)C5=CC(=CC=C5)NC(=O)C6=CN=C(C=C6)N + C[C@@H](Oc1cc(-c2cnn(C3CCNCC3)c2)cnc1N)c1c(Cl)ccc(F)c1Cl [Crizotinib] (partner 1 µM)
Method in brief: (§1)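 Cells from lung cancer lines were seeded into 1536-well plates and, one day later, dosed by pin tool. Treatments were either a single drug or a fixed dose of an anchor drug with five library-drug doses (not always all listed) in √10 steps. After 5 days, nuclei were stained in a one-step fixation (final 0.05% Triton X-100, 1% formaldehyde, 1 ug/ml Hoechst) and counted on 4× images, and relative viability is the treated-to-vehicle nuclei ratio, as the median of duplicate plates.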

SGI-1776 + Palbociclib = compound: CN1CCC(CNc2ccc3ncc(-c4cccc(OC(F)(F)F)c4)n3n2)CC1 [SGI-1776] + CC(=O)c1c(C)c2cnc(Nc3ccc(N4CCNCC4)cn3)nc2n(C2CCCC2)c1=O [Palbociclib] (partner 0.5 µM)
Method in brief: as §1

Entinostat + Phenformin = compound: Nc1ccccc1NC(=O)c1ccc(CNC(=O)OCc2cccnc2)cc1 [Entinostat] + N=C(N)NC(=N)NCCc1ccccc1 [Phenformin] (partner 250 µM)
Method in brief: as §1

Entinostat + Olaparib = compound: Nc1ccccc1NC(=O)c1ccc(CNC(=O)OCc2cccnc2)cc1 [Entinostat] + O=C(c1cc(Cc2n[nH]c(=O)c3ccccc23)ccc1F)N1CCN(C(=O)C2CC2)CC1 [Olaparib] (partner 8 µM)
Method in brief: as §1

Cell Line: UMC-11
- relative viability ([1]; first compound 0.02 µM): 0.564
- relative viability ([1]; first compound 0.06325 µM): 0.59
- relative viability ([1]; first compound 0.2 µM): 0.677
- relative viability ([1]; first compound 0.6325 µM): 0.672
- relative viability ([1]; first compound 2 µM): 0.498
- relative viability (SGI-1776 + Palbociclib; first compound 0.08 µM): 0.366
- relative viability (SGI-1776 + Palbociclib; first compound 0.8 µM): 0.338
- relative viability (SGI-1776 + Palbociclib; first compound 2.53 µM): 0.378
- relative viability (SGI-1776 + Palbociclib; first compound 8 µM): 0.312
- relative viability (Entinostat + Phenformin; first compound 0.02 µM): 0.307
- relative viability (Entinostat + Phenformin; first compound 0.06325 µM): 0.334
- relative viability (Entinostat + Phenformin; first compound 0.2 µM): 0.347
- relative viability (Entinostat + Phenformin; first compound 0.6325 µM): 0.21
- relative viability (Entinostat + Phenformin; first compound 2 µM): 0.188
- relative viability (Entinostat + Olaparib; first compound 0.02 µM): 0.376
- relative viability (Entinostat + Olaparib; first compound 0.06325 µM): 0.345
- relative viability (Entinostat + Olaparib; first compound 0.2 µM): 0.242
- relative viability (Entinostat + Olaparib; first compound 0.6325 µM): 0.116
- relative viability (Entinostat + Olaparib; first compound 2 µM): 0.0922
